“Also recorded” adds a separate entry of the source.

Holding throughout (format): in vivo, C57BL/6 (B6) mice
Test [1] deals with P. aeruginosa KEI 1025 infected cornea. As to the kind of experiment: Ocular response to bacterial infection (clinical score, slit lamp), KEI 1025 keratitis. To be noted: subconj. 1 day before infection + IP 1 and 3 days p.i., vs PBS. From the text:
P. aeruginosa strains, KEI 1025, a non-cytotoxic clinical isolate strain expressing exoT and exoS, and not expressing exoU, described in Estrellas P S, Jr., et al., Curr Eye Res. 2000; 20:157-165 (obtained from Kresge Eye Institute, Detroit, Mich.), and a cytotoxic strain, 19660, expressing exoU, described in Finck-Barbancon V, et al., Mol Microbiol. 1997; 25:547-557; and Fleiszig S M, et al., Infect Immun. 1997; 65:579-586 (obtained from American Type Culture Collection, ATCC, Manassas, Va.), were grown in peptone tryptic soy broth (PTSB) medium in a rotary shaker water bath at 37° C. and 150 rpm for 18 h to an optical density (measured at 540 nm) between 1.3-1.8. Bacterial cultures were pelleted by centrifugation at 5,500 g for 10 min. Pellets were washed once with sterile saline, re-centrifuged, re-suspended and diluted in sterile saline. Anesthetized (using anhydrous ethyl ether) mice were placed beneath a stereoscopic microscope at 40× magnification. The left cornea was scarified with three 1-mm incisions using a sterile 25^5/8 gauge needle. The wounded corneal surface was topically treated with 5 μl containing 1×10^7 CFU/μl (KEI 1025) or 1×10^6 CFU/μl (ATCC strain 19660) of the P. aeruginosa suspension.
An established corneal disease grading scale, described in detail in Hazlett L D, et al., Invest Ophthalmol Vis Sci. 1987; 28:1978-1985, was used to assign a clinical score value to each infected eye at 1, 3 and 5 days post infection (p.i.). Clinical scores were designated as: 0=clear or slight opacity, partially or fully covering the pupil; +1=slight opacity, fully covering the anterior segment; +2=dense opacity, partially or fully covering the pupil; +3=dense opacity, covering the entire anterior segment; and +4=corneal perforation or phthisis. Clinical scores were used to statistically compare disease severity and were accompanied by photographs using a slit lamp (5 days p.i.) to confirm and illustrate the response.
(§1) The left eyes of B6 mice (n=5/group/time) were injected with 5 μl of 2 μg/μl glycyrrhizin (GLY) (Sigma-Aldrich, St. Louis, Mo.) or PBS (control) subconjunctivally, one day before infection. Similar treatment was done using carbenoxolone (CBX) (Sigma-Aldrich, St. Louis, Mo.). All mice were injected intraperitoneally (IP) at 1 and 3 days p.i. with 100 μl of GLY (2 μg/μl) or CBX (1 μg/μl). PBS served as control for all these experiments. In a separate similar experiment mice were treated one day before infection with GLY subconjunctivally and injected intraperitoneally (i.p.) with GLY plus recombinant (r) HMGB1 (1 μg/100 μl) or GLY plus PBS. IP injections were similarly given at 1 and 3 days p.i. In an additional experiment, KEI 1025 infected B6 mice were treated with 5 μl of 2 μg/μl GLY subconjunctivally at 6 hours p.i. and injected intraperitoneally at 1 and 3 days p.i. with 100 μl of GLY (2 μg/μl).

The subject of test [2] is mRNA levels in P. aeruginosa KEI 1025 infected cornea. As to the kind of experiment: Real time RT-PCR of cornea, KEI 1025 infection. Here is the method:
as §1
KEI 1025 or ATCC strain 19660 infected GLY or PBS treated mice were sacrificed at 5 days p.i. and the normal, contralateral (uninfected) and infected cornea was harvested. For each cornea, total RNA was isolated (RNA STAT-60™; Tel-Test, Friendswood, Tex.) according to the manufacturer's instructions. Upon spectrophotometric quantification at 260 nm, 1 μg of each RNA sample was reverse transcribed using Moloney-murine leukemia virus (M-MLV) reverse transcriptase (Invitrogen, Carlsbad, Calif.) to produce a cDNA template for the PCR reaction. cDNA products were diluted 1:25 with diethylpyrocarbonate (DEPC)-treated water. A 2 μl aliquot of diluted cDNA was used for the real-time RT-PCR reaction with Real-Time SYBR® Green/Fluorescein PCR Master Mix (Bio-Rad) and primer concentrations of 10 μM (total 10 μl reaction volume). After a pre-programmed hot start cycle (3 min at 95° C.), the parameters used for PCR amplification were: 15 sec at 95° C. and 60 sec at 60° C. with the cycles repeated 45 times. Optimal conditions for PCR amplification of cDNA were established using routine methods. mRNA levels of HMGB1, RAGE, IL-1β, TLR2, TLR4, CXCL2, TNF-α, NLR family pyrin domain containing 3 (NLRP3), NLR family CARD domain containing 4 (NLRC4), IL-12, TGF-β, IL-10, single Ig IL-1-related receptor (SIGIRR) and interleukin 1 receptor-like 1 (ST2) were tested by real-time RT-PCR (CFX Connect™ Real-Time PCR Detection System; Bio-Rad, Richmond, Calif.). The fold differences in gene expression were calculated after normalization to β-actin and expressed as the relative mRNA concentration+SEM.

Another test relates to P. aeruginosa KEI 1025. Nature of the test: Quantification of viable bacteria (plate count), KEI 1025 infection. As to conditions: pretreatment subconj. + IP, vs PBS. How it is done: as §1
Mice were sacrificed at 3 and 5 days p.i. and KEI 1025 or ATCC strain 19660 infected corneas from GLY, CBX or PBS (or GLY+/−rHMGB1) treated B6 mice were harvested (n=5/group/time). Each cornea was homogenized in 1 ml of sterile saline (0.85% NaCl, pH 7.4) containing 0.25% BSA. A 100 μl of the corneal homogenate was serially diluted (1:10) in sterile saline containing 0.25% BSA. Selected dilutions were plated in triplicate on selective culture medium (Difco™ Pseudomonas Isolation Agar, BD Biosciences, Inc., Franklin Lakes, N.J.). Plates were incubated overnight at 37° C. and viable bacteria manually counted. Results are reported as log10 CFU/cornea±SEM.

[3] abbreviates: KEI 1025, pretreatment subconj. + IP, infected cornea 5 days p.i., vs PBS.

Turning to `CC1(C)[C@@H](OC(=O)CCC(=O)O)CC[C@]2(C)[C@H]3C(=O)C=C4[C@@H]5C[C@@](C)(C(=O)O)CC[C@]5(C)CC[C@@]4(C)[C@]3(C)CC[C@@H]12` [CBX, carbenoxolone], the clinical scores entry in test [1] (3 days p.i.) is listed as “statistically significant reduction in disease scores; also recorded: only reduced at 3 days”. In test [1] (5 days p.i.), the clinical scores entry is listed as “not at 5 (p=0.2) days p.i” and the “opacity, slit lamp photographs” value is “reduced opacity”. In addition, in test [2] (setting [3]), the “CXCL2 mRNA levels” value was “reduced”, the “HMGB1 mRNA levels” value is “no difference”, the “IL-1β mRNA levels” value was “significantly reduced” and the “IL-12 mRNA levels” value was “only GLY reduced”. Besides, in test [2] (setting [3]), the “NLRC4 mRNA levels” value is reported as “only GLY reduced”, the “NLRP3 mRNA levels” value was “reduced”, the “SIGIRR mRNA levels” value is recorded as “increased modestly” and the “TGF-β mRNA levels” value was “reduced”. In addition, in test [2] (setting [3]), the “TLR2 mRNA levels” value is “did not differ from PBS controls”; the “TLR4 mRNA” value is reported as “reduced”; the “TNF-α mRNA levels” value was “reduced by both GLY and CBX, but only GLY (p<0.01) was significant”. Also, the “mRNA levels of the other molecules tested” value in test [2] (normal (uninfected) corneas, among PBS, CBX, GLY groups) is “no differences”. Besides, in the test with P. aeruginosa KEI 1025 (3 days p.i.), the “bacterial load in the corneas (plate count)” value is reported as “not at 3 days p.i”. Moreover, the “bacterial load in the corneas (plate count)” value in the test with P. aeruginosa KEI 1025 (5 days p.i.) is given as “significantly reduced”.

The values are drawn from US10500222B2, “Compositions and methods relating to treatment of infection” (Wayne State University, priority 2015, dated 2019).
